Test results as given in patent EP0974360A2, “Pharmaceutical preparations for use in combatting or preventing surface infections caused by microorganisms” (N.V. Nutricia, priority 1998, dated 2000).

Tests used:
[1] = system: C. glabrata Y110; assay: Synergy experiments (8 by 8 dilution matrix, growth by UV turbidity at 630 nm); type: cell-based; conditions: for UV (Candida growth, 630 nm): 24 hours
[2] = system: C. glabrata Y110; assay: MIC and growth inhibition at several pH's in SLM or RPMI medium; type: cell-based; conditions: figures 5 and 6

SMILES | decline of effective concentration as compared to its MIC value ([1]; 0.0008 µg/ml 5-fluorocytosine with 0.02 mg/ml lactoferrin) [times] | UV (Candida growth, 630 nm) ([1]; Fluconazole 0.2 mg/ml alone) | UV (Candida growth, 630 nm) ([1]; Fluconazole 0.33 mg/ml alone) | UV (Candida growth, 630 nm) ([1]; Fluconazole 0.5 mg/ml alone) | effect of an increase in pH of the medium on inhibition [2]
Nc1nc(=O)[nH]cc1F [5-Fluorocytosine, 5-fluorocytosine] | 30 | – | – | – | –
OC(Cn1cncn1)(Cn1cncn1)c1ccc(F)cc1F [Fluconazole, fluconazole] | – | 0.003 | 0.003 | 0.004 | more efficient inhibition
